pEC50: −log10 of the molar value.
How the values were obtained:
[1] = target: T1, Bombyx mori EcR (VP16 fusion, CVBE switch construct) (Bombyx mori, UniProt P49881); experiment: Z3 Assay (HEK-293 cells with CVBE and 6XEcRE LacZ, β-galactosidase reporter)
T1 sequence (P49881 86-606): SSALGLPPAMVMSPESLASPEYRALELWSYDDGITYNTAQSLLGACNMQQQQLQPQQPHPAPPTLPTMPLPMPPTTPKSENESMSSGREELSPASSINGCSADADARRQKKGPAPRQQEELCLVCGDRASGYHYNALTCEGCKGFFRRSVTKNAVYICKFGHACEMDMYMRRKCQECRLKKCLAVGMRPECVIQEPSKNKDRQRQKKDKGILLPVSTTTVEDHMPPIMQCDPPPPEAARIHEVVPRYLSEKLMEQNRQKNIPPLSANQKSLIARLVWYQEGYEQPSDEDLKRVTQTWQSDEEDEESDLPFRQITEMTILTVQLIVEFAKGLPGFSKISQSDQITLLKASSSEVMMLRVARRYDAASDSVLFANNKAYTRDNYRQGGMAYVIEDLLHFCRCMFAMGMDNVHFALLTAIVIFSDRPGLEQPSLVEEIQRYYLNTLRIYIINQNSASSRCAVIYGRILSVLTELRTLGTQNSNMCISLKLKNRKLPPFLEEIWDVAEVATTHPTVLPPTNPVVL
T1 sequence (P19793 1-462 partner): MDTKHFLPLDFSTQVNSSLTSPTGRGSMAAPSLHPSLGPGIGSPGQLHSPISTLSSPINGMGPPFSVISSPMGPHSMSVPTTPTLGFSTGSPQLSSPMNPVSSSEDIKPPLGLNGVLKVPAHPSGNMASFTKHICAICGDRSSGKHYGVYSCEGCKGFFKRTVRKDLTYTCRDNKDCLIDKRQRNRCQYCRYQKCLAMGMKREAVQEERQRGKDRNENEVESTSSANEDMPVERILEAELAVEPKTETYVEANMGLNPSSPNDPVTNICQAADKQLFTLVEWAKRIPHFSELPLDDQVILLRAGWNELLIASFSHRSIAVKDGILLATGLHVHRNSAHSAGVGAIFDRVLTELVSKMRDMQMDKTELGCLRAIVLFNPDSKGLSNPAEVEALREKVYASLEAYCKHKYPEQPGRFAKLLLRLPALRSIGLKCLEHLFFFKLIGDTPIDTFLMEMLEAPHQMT

Caco-2 monolayers = experiment: Bi-directional permeability, CACO-2; assay type: in vitro ADME
Procedure: Caco-2 monolayers were grown to confluence on collagen-coated, microporous, polycarbonate membranes in 12-well Costar Transwell plates. Details of the plates and their certification are shown below. The permeability assay buffer was Hank's Balanced Salt Solution containing 10 mM HEPES and 15 mM glucose at a pH of 7.0±0.2. The dosing solution concentration was 10 μM in assay buffer. At each time point, 1 and 2 hours, a 200-μL aliquot was taken from the receiver chamber and replaced with fresh assay buffer. Cells were dosed on the apical side (A-to-B) or basolateral side (B-to-A) and incubated at 37° C. with 5% CO2 and 90% relative humidity. Each determination was performed in duplicate. The important experimental parameters are outlined below. Permeability through a cell-free (blank) membrane was studied to determine non-specific binding and free diffusion of the compound through the device. Lucifer yellow flux was also measured for each monolayer after being subjected to the test compounds to ensure no damage was inflicted to the cell monolayers during the flux period.
All samples were assayed by LC/MS using electrospray ionization. Typical LC/MS conditions are as follows:
dCr/dt is the cumulative concentration in the receiver compartment versus time in M s^−1.
Vr is the volume of the receiver compartment in cm^3.
Vd is the volume of the donor compartment in cm^3.
A is the area of the cell monolayer (1.13 cm^2 for 12-well Transwell).
C0 is the concentration of the dosing solution in M.
Cr^final is the cumulative receiver concentration in M at the end of the incubation period.
Cd^final is the concentration of the donor in M at the end of the incubation period.

[2] = Partition coefficient Log (D), 1-octanol / pH 7.4 buffer; assay type: physicochemical; settings: water-saturated 1-octanol / pH 7.4 buffer, room temperature
Procedure: The partition coefficient, Log (D), between water-saturated 1-octanol and pH 7.4 buffer was determined for the test compounds. The buffer was prepared as described in section 2. A 12 μl aliquot of a 10 mM stock solution in DMSO was introduced to a vial containing 0.60 mL of octanol and 0.60 mL of buffer at room temperature. Testosterone was also added to a final concentration of 100 μM as an internal control. The solution was vortexed for 60 minutes and centrifuged at 10,000 rpm for 10 minutes. The organic and aqueous layers were removed. Serial dilutions of the organic layer were made with 50% methanol except for the initial dilution, which was made in 100% methanol. Serial dilutions of the aqueous layer were made in the pH 7.4 buffer. The diluted samples were then assayed by LC/MS for the compound as well as for testosterone. The Log of the ratio of peak area responses was calculated to obtain the Log (D). Typical Log D values for testosterone are from 3.0-3.3.

[3] = Aqueous equilibrium solubility in pH 7.4 buffer; settings: pH 7.4 aqueous buffer, room temperature, equilibrium

With `CCc1c(OC)cccc1C(=O)NN(C(=O)c1ccccc1S(=O)(=O)O)C(C)(C)C` [RG-115555] the “Fold Induction, Z3 Assay, 3.3 uM” value ([1]; 3.3 uM ligand, ligand treated / DMSO treated cells, average of two wells) was 1, the “Z3 assay Rel Max FI” value ([1]; maximum fold induction at any concentration relative to that of GS-E ligand, HEK-293 Z3 cells) was 0.006 and the pEC50 ([1]; read-out: Z3 assay EC50, HEK-293 Z3 cells, β-galactosidase reporter, average of two wells) was under 4.30. The “Papp Blank” value (Caco-2 monolayers; Caco-2) was 35.8 10^−6 cm/s, the “Papp, A-to-B Avg” value (Caco-2 monolayers; Caco-2) was 0.18 10^−6 cm/s and the “Papp, A-to-B Rep. 1” value (Caco-2 monolayers; Caco-2) was 0.18 10^−6 cm/s. The “Papp, A-to-B Rep. 2” value (Caco-2 monolayers; Caco-2) was 0.18 10^−6 cm/s, the “Papp, B-to-A Avg” value (Caco-2 monolayers; Caco-2) was 1.61 10^−6 cm/s and the “Papp, B-to-A Rep. 1” value (Caco-2 monolayers; Caco-2) was 1.55 10^−6 cm/s. For the same compound, the “Papp, B-to-A Rep. 2” value (Caco-2 monolayers; Caco-2) was 1.67 10^−6 cm/s, the “Papp B-A / Papp A-B Ratio” value (Caco-2 monolayers; Caco-2 efflux ratio) was 8.9 and the “Log(D) Octanol/pH 7.4” value [2] was 0.0. The “Solubility pH 7.4” value [3] was “≧1.0 mg/mL”.

Reference: patent publication US9102648B1, “Bioavailable diacylhydrazine ligands for modulating the expression of exogenous genes via an ecdysone receptor complex” (Intrexon Corporation, priority 2003, dated 2015)
